Columns and labels:
[1] = Antiproliferative activity against human C8146A cells assessed as growth inhibition; format: functional, cell-based
[2] = target: T1, Diamine oxidase [copper-containing] (Homo sapiens, UniProt P19801); experiment: Mixed type inhibition of recombinant human DAO expressed in drosophila S2 cells; format: cell-based
T1 sequence (P19801 whole entry): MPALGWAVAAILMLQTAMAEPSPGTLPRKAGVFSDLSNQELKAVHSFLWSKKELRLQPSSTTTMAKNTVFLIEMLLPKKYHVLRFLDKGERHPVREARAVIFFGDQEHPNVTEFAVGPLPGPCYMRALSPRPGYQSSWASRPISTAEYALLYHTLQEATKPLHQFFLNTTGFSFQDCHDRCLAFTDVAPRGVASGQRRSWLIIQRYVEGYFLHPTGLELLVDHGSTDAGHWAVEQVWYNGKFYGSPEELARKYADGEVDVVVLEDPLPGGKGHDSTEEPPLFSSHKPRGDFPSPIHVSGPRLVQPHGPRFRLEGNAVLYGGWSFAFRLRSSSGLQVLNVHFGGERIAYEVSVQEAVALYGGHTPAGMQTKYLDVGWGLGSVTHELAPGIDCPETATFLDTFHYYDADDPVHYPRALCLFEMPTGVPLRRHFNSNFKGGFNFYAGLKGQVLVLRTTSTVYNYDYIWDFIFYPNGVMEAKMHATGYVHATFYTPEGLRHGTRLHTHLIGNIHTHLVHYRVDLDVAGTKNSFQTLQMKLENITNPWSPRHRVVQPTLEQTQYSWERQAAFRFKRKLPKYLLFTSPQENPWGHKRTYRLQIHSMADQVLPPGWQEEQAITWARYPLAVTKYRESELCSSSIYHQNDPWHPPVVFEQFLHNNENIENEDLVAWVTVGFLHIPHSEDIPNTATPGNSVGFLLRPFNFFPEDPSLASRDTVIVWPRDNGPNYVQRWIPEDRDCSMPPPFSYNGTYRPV

[3] = target: T2, Acid-sensing ion channel 1 (Mus musculus) (UniProt Q6NXK8); experiment: Inhibition of mouse hippocampal neurons ASIC1b transfected in CHO cells assessed as reduction of acid-evoked current at 3 uM at -60 mV holding potential by two-electrode voltage-clamp electrophysiology assay; format: cell-based
T2 sequence (whole entry): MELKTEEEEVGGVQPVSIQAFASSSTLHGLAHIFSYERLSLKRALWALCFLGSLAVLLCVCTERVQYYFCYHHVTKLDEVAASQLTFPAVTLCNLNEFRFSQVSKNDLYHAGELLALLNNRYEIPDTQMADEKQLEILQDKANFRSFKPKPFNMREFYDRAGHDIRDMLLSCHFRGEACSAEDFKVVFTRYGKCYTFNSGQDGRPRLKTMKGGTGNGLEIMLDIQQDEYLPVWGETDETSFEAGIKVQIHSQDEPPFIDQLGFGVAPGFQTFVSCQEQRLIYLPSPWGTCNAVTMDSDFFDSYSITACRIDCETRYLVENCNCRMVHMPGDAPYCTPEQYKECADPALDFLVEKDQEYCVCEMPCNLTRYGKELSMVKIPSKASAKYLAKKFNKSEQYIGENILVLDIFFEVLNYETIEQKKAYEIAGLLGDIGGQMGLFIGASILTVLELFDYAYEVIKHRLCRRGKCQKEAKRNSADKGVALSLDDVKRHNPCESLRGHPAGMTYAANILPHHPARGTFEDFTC

[4] = target: T3, Acid-sensing ion channel 3 (Mus musculus) (UniProt Q6X1Y6); experiment: Inhibition of mouse hippocampal neurons ASIC3 transfected in CHO cells assessed as reduction of acid-evoked current at 3 uM at -60 mV holding potential by two-electrode voltage-clamp electrophysiology assay; format: cell-based
T3 sequence (whole entry): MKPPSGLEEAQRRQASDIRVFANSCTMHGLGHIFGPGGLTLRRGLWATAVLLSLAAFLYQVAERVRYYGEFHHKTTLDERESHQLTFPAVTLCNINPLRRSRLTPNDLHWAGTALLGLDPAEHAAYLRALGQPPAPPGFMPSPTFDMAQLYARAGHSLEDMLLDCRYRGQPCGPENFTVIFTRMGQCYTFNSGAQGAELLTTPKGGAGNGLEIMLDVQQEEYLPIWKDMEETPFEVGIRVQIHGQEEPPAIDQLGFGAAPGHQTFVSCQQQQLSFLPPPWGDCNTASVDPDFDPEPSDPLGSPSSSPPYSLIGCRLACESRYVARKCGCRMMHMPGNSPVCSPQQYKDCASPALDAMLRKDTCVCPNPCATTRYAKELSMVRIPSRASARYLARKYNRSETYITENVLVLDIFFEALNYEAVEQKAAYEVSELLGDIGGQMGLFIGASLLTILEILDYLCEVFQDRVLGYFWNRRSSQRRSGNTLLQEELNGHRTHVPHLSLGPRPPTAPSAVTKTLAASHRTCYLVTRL

[5] = Inhibition of mouse hippocampal neurons ASIC transfected in CHO cells assessed as inhibition of acid-evoked current at -60 mV holding potential by two-electrode voltage-clamp electrophysiology assay; format: cell-based
[6] = target: Glutamate NMDA receptor; GRIN1/GRIN2A (Homo sapiens, UniProt Q05586+Q12879); experiment: Antagonist activity at NR1/NR2A receptor (unknown origin) expressed in Xenopus laevis oocytes assessed as inhibition of glutamate/glycine-induced current at pH 7.6 at -40mV holding potential by two-electrode voltage-clamp electrophysiology; format: cell-based
Chain of Glutamate NMDA receptor; GRIN1/GRIN2A (Q12879 whole entry, other chains not shown): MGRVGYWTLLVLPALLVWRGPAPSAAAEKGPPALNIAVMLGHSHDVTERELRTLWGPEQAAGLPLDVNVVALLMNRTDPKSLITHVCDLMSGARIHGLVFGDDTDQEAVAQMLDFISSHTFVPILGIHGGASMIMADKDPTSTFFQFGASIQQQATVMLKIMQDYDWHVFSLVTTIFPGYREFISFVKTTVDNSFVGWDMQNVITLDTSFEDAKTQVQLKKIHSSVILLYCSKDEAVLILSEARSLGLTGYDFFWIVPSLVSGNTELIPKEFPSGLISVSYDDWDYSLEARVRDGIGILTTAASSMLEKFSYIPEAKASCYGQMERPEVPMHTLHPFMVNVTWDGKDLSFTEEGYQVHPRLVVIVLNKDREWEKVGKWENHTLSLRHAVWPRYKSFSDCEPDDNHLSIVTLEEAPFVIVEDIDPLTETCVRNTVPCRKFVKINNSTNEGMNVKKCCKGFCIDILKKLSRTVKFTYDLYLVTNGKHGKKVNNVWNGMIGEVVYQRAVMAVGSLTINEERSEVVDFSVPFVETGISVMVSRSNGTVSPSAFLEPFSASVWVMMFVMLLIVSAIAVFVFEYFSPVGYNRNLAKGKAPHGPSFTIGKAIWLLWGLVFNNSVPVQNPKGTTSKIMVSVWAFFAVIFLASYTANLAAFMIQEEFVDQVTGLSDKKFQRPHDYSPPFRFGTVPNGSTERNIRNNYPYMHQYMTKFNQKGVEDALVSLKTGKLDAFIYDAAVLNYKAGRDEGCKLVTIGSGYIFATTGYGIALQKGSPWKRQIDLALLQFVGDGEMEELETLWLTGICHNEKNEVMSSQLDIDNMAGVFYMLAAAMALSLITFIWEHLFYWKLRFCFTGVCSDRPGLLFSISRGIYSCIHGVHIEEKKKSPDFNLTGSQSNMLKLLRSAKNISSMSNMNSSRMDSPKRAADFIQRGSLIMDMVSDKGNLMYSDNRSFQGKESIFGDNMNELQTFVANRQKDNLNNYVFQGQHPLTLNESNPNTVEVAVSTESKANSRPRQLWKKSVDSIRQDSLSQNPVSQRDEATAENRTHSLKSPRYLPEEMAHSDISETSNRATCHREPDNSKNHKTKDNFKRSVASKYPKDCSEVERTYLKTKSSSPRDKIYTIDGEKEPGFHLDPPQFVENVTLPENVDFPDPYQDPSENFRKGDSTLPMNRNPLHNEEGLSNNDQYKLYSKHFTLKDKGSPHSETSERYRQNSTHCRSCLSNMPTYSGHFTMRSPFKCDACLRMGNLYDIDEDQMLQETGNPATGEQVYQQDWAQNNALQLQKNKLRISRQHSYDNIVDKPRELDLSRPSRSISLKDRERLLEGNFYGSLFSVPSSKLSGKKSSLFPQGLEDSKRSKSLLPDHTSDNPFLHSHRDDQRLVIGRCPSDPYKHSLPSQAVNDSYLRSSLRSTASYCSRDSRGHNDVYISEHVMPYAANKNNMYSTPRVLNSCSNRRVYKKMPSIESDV

[7] = target: Diamine acetyltransferase 1 (Homo sapiens, UniProt P21673); experiment: Inhibition of human SSAT using spermidine as substrate
Chain of Diamine acetyltransferase 1 (P21673 whole entry): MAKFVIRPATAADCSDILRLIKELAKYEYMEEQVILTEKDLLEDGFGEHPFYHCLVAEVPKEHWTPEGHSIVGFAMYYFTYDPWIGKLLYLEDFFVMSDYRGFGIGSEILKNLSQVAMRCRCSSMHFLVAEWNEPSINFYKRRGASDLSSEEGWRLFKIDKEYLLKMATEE

[8] = Inhibition of mouse polyamine oxidase assessed as conversion of N-acetylspermine to […]
[9] = target: T4, Acid-sensing ion channel 2 (Mus musculus) (UniProt Q925H0); experiment: Inhibition of mouse hippocampal neurons ASIC2a transfected in CHO cells assessed as reduction of acid-evoked current at 3 uM at -60 mV holding potential by two-electrode voltage-clamp electrophysiology assay; format: cell-based
T4 sequence (whole entry): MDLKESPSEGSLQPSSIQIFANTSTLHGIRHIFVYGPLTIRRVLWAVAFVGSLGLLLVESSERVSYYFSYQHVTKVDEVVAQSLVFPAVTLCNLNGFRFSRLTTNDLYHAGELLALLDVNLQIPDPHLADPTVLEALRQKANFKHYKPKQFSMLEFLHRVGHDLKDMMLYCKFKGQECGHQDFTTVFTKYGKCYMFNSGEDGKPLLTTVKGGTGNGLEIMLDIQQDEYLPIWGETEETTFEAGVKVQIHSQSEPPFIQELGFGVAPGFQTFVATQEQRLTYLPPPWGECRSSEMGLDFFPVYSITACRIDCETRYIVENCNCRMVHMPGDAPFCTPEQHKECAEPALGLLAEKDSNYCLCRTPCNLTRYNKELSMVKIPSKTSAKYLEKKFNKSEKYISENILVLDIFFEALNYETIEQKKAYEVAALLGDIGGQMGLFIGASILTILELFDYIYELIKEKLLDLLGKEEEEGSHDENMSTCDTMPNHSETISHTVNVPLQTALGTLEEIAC

[10] = target: T2, Acid-sensing ion channel 1 (Mus musculus); experiment: Inhibition of mouse hippocampal neurons ASIC1a transfected in CHO cells assessed as reduction of acid-evoked current at 3 uM at -60 mV holding potential by two-electrode voltage-clamp electrophysiology assay; format: cell-based
Homo sapiens [11] = species: Homo sapiens; experiment: Inhibition of human KIR2.X channel assessed as remaining outward current at 0.2 uM; values are per cent of control
[12] = Binding affinity to r(CUG)6 (unknown origin) assessed as inhibition of RNA-MBNL1 interaction by quantitative TR-FRET assay
Homo sapiens [13] = species: Homo sapiens; experiment: Inhibition of human KIR2.X channel assessed as remaining inward current at 0.2 uM; values are per cent of control
[14] = target: Glutamate [NMDA] receptor; experiment: Antagonist activity at NMDA receptor (unknown origin); parameters: species or system Homo sapiens
Mus musculus [15] = experiment: Neuroprotective activity in Swiss mouse focal cerebral injury model assessed as reduction of ibotenate-induced lesion size in gray matter at 4 ug/kg; format: functional; parameters: scale not given: the % may be the effect or the level left
Mus musculus [16] = experiment: Neuroprotective activity in Swiss mouse focal cerebral injury model assessed as reduction of ibotenate-induced lesion size in white matter at 4 ug/kg; format: functional; parameters: scale not given: the % may be the effect or the level left

SMILES: N=C(N)c1ccc(OCCCCCOc2ccc(C(=N)N)cc2)cc1 [PENTAMIDINE]
- IC50 [1]: 1.2 µM
- Ki [2]: 0.29 µM
- inhibition [3]: 92%
- inhibition [4]: 74%
- IC50 [5]: 38 µM
- IC50 [6]: 0.72 µM
- Ki [7]: 2 µM
- Ki [8]: 7.6 µM
- inhibition [9]: 51%
- inhibition [10]: 39%
- residual activity (Homo sapiens [11]): 10.8%
- IC50 [12]: > 1000 µM
- residual activity (Homo sapiens [13]): 48.2%

SMILES: N=C(N)c1ccc(OCCOc2cccc(N)c2)cc1
- IC50 [12]: 250 µM

SMILES: N=C(N)c1ccc(-c2cc3ccc(C(=N)N)cc3[nH]2)cc1 [DAPI]
- IC50 [5]: 2.8 µM

SMILES: N=C(N)c1ccc(N2CCCN(c3ccc(C(=N)N)cc3)CC2)cc1
- IC50 [14]: 1.19 µM

SMILES: CC(C)(C)NC(=O)c1cccc(N2C(=O)c3ccc(C(=O)O)cc3C2=O)c1
- IC50 [1]: > 100 µM

SMILES: N=C(N)c1ccc(/N=N/Nc2ccc(C(=N)N)cc2)cc1 [DIMINAZENE]
- Ki [2]: 0.013 µM
- IC50 [5]: 0.3 µM
- Ki [7]: 2.4 µM
- Ki [8]: 120 µM

SMILES: N=C(N)c1ccc(NC(=O)c2ccc(C(=O)Nc3ccc(C(=N)N)cc3)c(N)c2)cc1
- IC50 [12]: 10 µM

SMILES: CNC1(c2ccccc2Cl)CCCCC1=O (stereo not drawn) [KETAMINE]
- IC50 [6]: 3.31 µM

SMILES: N=C(N)NC(=N)Nc1cccc(Cl)c1Cl
- IC50 [1]: 8 µM

SMILES: CN1CC[C@@]23CCCC[C@@H]2[C@@H]1Cc1ccc(O)cc13 [DEXTRORPHAN]
- IC50 [6]: 1.3 µM

SMILES: N=C(Nc1ccc(OCCCCCOc2ccc(NC(=N)c3ccccc3)cc2)cc1)c1ccccc1
- residual activity (Homo sapiens [11]): 12.1%
- residual activity (Homo sapiens [13]): 86.6%

SMILES: Cc1cc(C)c(N2C(=O)c3ccc(C(=O)Nc4cc(C(=O)O)cc(C(=O)O)c4)cc3C2=O)c(C)c1
- IC50 [1]: 44 µM

SMILES: N=C(N)c1ccc(NCCNc2ccc(C(=N)N)cc2)cc1
- Activity (Mus musculus [15]): 49%
- Activity (Mus musculus [16]): 69%

SMILES: N=C(N)NC(=N)Nc1ccc(Cl)cc1C(=O)c1ccccc1
- IC50 [1]: 12 µM

SMILES: N=C(N)c1ccc(/C=C/c2ccc(C(=N)N)cc2O)cc1 [HYDROXYSTILBAMIDINE]
- IC50 [5]: 1.5 µM

SMILES: Cc1c(NS(=O)(=O)c2ccc(NC(=O)CCC(=O)O)cc2)c(=O)n(-c2ccccc2)n1C
- IC50 [1]: > 100 µM

From ChEMBL document CHEMBL3232957, “Some non-conventional biomolecular targets for diamidines. A short survey” (Bioorg Med Chem, 2014)
